Experimental data: patent US20020148001A1, “Transgenic mice containing CRFR2 corticotropin-releasing factor receptor gene disruptions” (priority 2000, published 2002)
No end group written: not given here.

Columns and labels:
[1] = system: homozygous mutant mice (CRFR2 −/−); assay: Metrazol dose test (seizure susceptibility), CRFR2 homozygous mutant mice; type: in vivo, mouse; settings: for Dose to Death / Dose to Extension (tonic extension) / Dose to T/C (tonic/clonic seizure) / Dose to Twitch: genotype −/−
Procedure: (§1) A metrazol administration test can be used to screen animals for varying susceptibilities to seizures or similar events. For example, a 5 mg/ml solution of metrazol can be infused through the tail vein of a mouse at a rate of, e.g., approximately 0.375 ml/min. The infusion will cause all mice to experience seizures, followed by death. Those mice that enter the seizure stage the soonest are believed to be more prone to seizures.
(§2) Phenotypic Analysis. The transgenic mice were analyzed for phenotypic changes.

[2] = system: wild-type control mice (+/+); assay: Metrazol dose test (seizure susceptibility), wild-type control mice; type: in vivo, mouse; settings: genotype +/+
Procedure: as §1, §2

[3] = biological target: T1, CRF2 receptor (Homo sapiens, UniProt Q13324); settings: transfected cells expressing the CRF2 receptor; cited from earlier work
T1 sequence (Q13324 1-411): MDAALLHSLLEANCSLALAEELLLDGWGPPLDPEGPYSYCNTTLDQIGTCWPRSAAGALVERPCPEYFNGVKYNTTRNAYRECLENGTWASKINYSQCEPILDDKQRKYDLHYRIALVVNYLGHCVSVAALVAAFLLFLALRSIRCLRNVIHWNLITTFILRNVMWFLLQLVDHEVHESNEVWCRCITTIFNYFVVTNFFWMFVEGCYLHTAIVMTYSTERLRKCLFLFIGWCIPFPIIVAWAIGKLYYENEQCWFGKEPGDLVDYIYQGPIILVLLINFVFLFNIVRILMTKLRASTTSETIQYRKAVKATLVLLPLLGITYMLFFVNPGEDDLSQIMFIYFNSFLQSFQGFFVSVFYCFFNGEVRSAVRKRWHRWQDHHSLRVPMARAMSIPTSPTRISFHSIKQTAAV

[4] = system: CRHR2 −/− mice; settings: systemic urocortin, CRHR2 −/− mice in contrast to wildtype; cited from earlier work
[5] = system: CRHR2 −/− mice; settings: CRHR2 −/− mice following urocortin administration; recovered more rapidly than wildtype; cited from earlier work
[6] = system: CRHR2 −/− mice; settings: intravenously injected, mutant mice; cited from earlier work

With `C1CCc2nnnn2CC1` [metrazol] the “Dose to Death” value ([1]; F2N0) was 127.39 mg/kg body weight, the “Dose to Extension (tonic extension)” value ([1]; F2N0) was 98.20 mg/kg body weight and the “Dose to T/C (tonic/clonic seizure)” value ([1]; F2N0) was 44.38 mg/kg body weight. For the same molecule, the “Dose to Twitch” value ([1]; F2N0) was 34.90 mg/kg body weight, the “Dose to Death” value ([1]; F2N1) was 148.84 mg/kg body weight and the “Dose to Extension (tonic extension)” value ([1]; F2N1) was 119.75 mg/kg body weight. The “Dose to T/C (tonic/clonic seizure)” value ([1]; F2N1) was 37.93 mg/kg body weight, the “Dose to Twitch” value ([1]; F2N1) was 24.18 mg/kg body weight and the “metrazol response threshold, dose to show stereotypical seizure responses” value ([1]; homozygotes compared to wild-types, particularly tonic extension and death) was “higher dose of metrazol than wild-types”. The “Dose to Death” value ([2]; F2N0) was 136.65 mg/kg body weight, the “Dose to Extension (tonic extension)” value ([2]; F2N0) was 113.63 mg/kg body weight and the “Dose to T/C (tonic/clonic seizure)” value ([2]; F2N0) was 43.46 mg/kg body weight. The “Dose to Twitch” value ([2]; F2N0, tail vein infusion) was 36.93 mg/kg body weight, the “Dose to Death” value ([2]; F2N1) was 124.96 mg/kg body weight and the “Dose to Extension (tonic extension)” value ([2]; F2N1) was 95.46 mg/kg body weight. The “Dose to T/C (tonic/clonic seizure)” value ([2]; F2N1) was 34.36 mg/kg body weight and the “Dose to Twitch” value ([2]; F2N1) was 23.71 mg/kg body weight.

In the case of corticotropin-releasing hormone [CRH], the “intracellular cAMP” value [3] is listed as “increase”.

In the case of “urocortin (DDPPLSIDLTFHLLRTLLELARTQSQRERAEQNRIIFDSV; ends and bridges not checked; UniProt P81615 81-120, looked up)”, the “enhanced cardiac performance or reduced blood pressure” value [4] is given as “failed to show the enhanced cardiac performance or reduced blood pressure”, the feeding [5] is given as “initially suppressed” and the “effect on mean arterial pressure” value [6] is given as “no effect”.
